# Assay results reported in ChEMBL document CHEMBL5291721, “A preclinical secondary pharmacology resource illuminates target-adverse drug reaction associations of marketed drugs” (Nat Commun, 2023).
# Columns and labels:
# [1] = target: T1, Prostaglandin G/H synthase 1 (Rattus norvegicus, UniProt Q63921); assay type: functional
# T1 sequence (Q63921 whole entry): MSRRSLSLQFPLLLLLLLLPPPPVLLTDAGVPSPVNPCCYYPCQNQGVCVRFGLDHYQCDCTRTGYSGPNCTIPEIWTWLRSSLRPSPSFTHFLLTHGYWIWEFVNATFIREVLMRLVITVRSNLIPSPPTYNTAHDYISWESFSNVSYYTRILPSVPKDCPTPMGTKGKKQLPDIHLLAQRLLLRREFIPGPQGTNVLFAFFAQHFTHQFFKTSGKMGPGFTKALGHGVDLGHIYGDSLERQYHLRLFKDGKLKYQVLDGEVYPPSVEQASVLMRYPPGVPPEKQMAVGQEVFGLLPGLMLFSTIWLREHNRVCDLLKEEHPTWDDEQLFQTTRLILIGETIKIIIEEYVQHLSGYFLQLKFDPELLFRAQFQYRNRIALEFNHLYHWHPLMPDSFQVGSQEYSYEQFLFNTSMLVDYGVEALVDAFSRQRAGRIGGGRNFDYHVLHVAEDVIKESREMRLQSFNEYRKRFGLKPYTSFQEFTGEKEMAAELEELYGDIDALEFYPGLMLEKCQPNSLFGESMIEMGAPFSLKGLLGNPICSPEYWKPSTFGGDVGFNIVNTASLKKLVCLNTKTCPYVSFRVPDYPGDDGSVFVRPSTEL
# [2] = target: Vasopressin V2 receptor (Homo sapiens, UniProt P30518)
# Vasopressin V2 receptor, sequence (P30518 whole entry): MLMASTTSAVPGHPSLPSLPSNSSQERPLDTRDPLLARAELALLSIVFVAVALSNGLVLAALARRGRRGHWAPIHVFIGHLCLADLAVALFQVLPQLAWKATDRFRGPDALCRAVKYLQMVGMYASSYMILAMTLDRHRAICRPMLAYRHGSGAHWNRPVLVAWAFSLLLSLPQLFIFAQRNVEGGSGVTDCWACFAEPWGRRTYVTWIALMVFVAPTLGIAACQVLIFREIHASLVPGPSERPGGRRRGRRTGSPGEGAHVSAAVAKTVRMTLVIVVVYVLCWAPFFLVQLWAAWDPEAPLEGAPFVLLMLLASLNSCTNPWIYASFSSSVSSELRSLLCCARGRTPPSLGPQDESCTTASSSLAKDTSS
# [3] = target: Glutamate receptor ionotropic, NMDA 1 (Rattus norvegicus, UniProt P35439)
# [4] = target: Vascular endothelial growth factor receptor 2 (Homo sapiens, UniProt P35968); assay type: functional
# Vascular endothelial growth factor receptor 2, sequence (P35968 whole entry): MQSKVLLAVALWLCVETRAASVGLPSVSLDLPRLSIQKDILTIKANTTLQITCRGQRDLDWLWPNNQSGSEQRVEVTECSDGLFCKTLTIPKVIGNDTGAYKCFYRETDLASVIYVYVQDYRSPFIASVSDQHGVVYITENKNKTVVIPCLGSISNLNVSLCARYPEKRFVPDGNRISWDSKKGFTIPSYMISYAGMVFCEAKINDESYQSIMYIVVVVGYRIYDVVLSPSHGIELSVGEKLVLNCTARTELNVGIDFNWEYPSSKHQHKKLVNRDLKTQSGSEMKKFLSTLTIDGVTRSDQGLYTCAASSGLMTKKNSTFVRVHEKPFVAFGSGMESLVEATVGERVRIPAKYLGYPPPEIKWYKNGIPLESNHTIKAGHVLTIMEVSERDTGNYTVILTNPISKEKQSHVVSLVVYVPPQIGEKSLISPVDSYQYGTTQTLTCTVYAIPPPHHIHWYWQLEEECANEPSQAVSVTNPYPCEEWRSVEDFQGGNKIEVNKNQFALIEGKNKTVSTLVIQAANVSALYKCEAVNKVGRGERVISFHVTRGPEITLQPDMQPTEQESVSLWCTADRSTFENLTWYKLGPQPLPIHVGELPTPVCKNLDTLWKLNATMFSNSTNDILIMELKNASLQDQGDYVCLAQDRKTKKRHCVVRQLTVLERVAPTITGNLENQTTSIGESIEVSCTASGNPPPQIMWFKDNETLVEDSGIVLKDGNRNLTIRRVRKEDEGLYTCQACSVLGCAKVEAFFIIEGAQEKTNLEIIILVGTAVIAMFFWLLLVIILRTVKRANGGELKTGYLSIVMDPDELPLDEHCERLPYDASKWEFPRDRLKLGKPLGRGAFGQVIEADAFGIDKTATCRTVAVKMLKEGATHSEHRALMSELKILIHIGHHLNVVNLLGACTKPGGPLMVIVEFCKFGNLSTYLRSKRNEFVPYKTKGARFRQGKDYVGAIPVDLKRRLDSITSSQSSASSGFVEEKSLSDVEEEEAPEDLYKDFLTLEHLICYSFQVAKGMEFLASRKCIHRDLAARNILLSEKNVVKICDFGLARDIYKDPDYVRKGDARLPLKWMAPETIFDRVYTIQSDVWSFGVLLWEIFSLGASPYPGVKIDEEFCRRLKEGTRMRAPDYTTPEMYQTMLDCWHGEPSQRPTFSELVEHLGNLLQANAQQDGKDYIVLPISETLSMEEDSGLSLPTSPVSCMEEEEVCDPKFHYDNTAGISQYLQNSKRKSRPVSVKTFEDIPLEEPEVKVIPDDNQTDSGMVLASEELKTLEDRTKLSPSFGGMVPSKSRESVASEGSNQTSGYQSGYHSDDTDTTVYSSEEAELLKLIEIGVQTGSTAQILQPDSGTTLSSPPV
# [5] = target: 5-hydroxytryptamine receptor 2B (Homo sapiens, UniProt P41595); assay type: functional, cell-based
# 5-hydroxytryptamine receptor 2B, sequence (P41595 whole entry): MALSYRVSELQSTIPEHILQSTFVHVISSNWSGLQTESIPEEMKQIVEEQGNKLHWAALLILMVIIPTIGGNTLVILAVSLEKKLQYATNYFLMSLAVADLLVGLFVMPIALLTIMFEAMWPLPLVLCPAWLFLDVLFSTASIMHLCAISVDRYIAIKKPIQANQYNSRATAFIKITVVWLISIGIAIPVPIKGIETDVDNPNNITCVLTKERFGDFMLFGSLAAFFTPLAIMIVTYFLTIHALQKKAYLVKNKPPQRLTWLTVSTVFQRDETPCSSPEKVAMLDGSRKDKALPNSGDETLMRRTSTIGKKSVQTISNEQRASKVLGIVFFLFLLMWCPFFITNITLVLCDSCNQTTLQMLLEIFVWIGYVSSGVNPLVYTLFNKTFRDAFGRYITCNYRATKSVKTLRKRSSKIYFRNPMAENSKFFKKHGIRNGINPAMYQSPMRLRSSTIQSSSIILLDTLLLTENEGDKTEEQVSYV
# [6] = target: 3',5'-cyclic-AMP phosphodiesterase 4D (Homo sapiens, UniProt Q08499); assay type: functional
# 3',5'-cyclic-AMP phosphodiesterase 4D, sequence (Q08499 whole entry): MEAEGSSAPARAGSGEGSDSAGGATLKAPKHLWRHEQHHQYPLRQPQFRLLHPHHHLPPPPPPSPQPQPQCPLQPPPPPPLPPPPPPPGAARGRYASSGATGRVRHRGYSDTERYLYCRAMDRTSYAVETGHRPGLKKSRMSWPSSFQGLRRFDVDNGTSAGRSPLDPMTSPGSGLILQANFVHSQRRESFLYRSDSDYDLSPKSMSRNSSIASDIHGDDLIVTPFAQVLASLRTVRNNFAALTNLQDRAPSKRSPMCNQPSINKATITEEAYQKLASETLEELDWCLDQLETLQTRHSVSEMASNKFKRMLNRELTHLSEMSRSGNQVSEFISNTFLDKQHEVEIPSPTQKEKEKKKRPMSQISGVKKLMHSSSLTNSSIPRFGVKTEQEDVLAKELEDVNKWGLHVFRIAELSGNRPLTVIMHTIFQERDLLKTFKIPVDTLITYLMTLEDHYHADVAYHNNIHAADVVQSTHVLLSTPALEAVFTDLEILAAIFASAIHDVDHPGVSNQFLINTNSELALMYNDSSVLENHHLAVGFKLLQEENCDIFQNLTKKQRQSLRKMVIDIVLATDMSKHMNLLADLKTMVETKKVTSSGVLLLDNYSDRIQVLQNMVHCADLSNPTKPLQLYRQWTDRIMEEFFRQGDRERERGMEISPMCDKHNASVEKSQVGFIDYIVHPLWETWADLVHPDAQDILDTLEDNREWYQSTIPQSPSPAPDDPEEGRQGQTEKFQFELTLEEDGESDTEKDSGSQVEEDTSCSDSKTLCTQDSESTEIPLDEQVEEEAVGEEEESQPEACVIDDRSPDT
# [7] = target: T2, B2 bradykinin receptor (Homo sapiens, UniProt P30411)
# T2 sequence (P30411 whole entry): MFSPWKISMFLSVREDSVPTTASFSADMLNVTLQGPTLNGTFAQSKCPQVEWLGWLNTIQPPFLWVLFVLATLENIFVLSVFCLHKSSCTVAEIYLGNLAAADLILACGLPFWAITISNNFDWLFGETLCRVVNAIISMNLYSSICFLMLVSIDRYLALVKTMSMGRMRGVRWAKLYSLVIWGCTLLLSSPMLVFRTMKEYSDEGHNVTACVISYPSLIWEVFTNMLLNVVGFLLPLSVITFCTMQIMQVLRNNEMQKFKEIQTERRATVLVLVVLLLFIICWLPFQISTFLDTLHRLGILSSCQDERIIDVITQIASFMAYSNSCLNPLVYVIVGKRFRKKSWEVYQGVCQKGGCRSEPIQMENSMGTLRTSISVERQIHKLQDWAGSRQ
# [8] = target: T3, Neuropeptide Y receptor type 1 (Homo sapiens, UniProt P25929)
# T3 sequence (P25929 whole entry): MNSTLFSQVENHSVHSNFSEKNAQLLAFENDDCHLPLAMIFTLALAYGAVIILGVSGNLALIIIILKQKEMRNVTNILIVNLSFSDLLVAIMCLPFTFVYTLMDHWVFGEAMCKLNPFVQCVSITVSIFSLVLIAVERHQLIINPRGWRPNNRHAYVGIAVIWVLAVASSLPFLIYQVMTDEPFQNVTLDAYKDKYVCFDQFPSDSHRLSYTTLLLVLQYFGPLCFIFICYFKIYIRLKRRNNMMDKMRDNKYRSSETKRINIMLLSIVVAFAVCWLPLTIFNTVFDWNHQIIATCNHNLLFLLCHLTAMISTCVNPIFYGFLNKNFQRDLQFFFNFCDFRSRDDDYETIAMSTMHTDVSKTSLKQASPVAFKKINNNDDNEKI
# [9] = target: Histamine H2 receptor (Homo sapiens, UniProt P25021); assay type: functional, cell-based
# Histamine H2 receptor, sequence (P25021 whole entry): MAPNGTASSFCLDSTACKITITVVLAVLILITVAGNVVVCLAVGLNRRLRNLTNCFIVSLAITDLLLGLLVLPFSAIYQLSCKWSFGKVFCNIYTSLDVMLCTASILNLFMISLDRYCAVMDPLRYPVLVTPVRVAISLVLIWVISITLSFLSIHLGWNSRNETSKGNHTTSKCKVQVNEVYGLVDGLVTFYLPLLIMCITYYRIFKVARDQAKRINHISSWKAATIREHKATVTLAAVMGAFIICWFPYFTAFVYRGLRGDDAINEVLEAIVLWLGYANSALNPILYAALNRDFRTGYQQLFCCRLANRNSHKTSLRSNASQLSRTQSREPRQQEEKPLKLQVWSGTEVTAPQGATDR
# [10] = target: T4, Adenosine receptor A1 (Homo sapiens, UniProt P30542)
# T4 sequence (P30542 whole entry): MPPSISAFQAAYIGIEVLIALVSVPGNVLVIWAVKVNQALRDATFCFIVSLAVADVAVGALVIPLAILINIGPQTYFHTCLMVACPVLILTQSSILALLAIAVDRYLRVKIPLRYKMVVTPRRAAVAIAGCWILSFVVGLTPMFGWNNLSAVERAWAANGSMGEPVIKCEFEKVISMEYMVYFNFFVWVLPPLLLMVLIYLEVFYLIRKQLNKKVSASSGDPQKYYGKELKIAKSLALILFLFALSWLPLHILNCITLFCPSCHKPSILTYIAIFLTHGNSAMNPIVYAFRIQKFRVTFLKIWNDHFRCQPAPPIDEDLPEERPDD
# [11] = target: Melanocortin receptor 3 (Homo sapiens, UniProt P41968)
# Melanocortin receptor 3, sequence (P41968 whole entry): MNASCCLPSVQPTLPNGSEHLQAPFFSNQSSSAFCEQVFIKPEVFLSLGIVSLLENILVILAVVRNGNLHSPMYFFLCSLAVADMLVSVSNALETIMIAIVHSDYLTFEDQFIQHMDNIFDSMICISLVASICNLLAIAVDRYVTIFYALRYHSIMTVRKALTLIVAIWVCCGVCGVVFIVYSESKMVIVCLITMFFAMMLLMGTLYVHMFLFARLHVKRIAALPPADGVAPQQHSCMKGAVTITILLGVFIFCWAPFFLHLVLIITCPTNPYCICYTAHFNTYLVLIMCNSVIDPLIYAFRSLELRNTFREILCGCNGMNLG
# [12] = target: T5, Alpha-2C adrenergic receptor (Homo sapiens, UniProt P18825); assay type: functional
# T5 sequence (P18825 whole entry): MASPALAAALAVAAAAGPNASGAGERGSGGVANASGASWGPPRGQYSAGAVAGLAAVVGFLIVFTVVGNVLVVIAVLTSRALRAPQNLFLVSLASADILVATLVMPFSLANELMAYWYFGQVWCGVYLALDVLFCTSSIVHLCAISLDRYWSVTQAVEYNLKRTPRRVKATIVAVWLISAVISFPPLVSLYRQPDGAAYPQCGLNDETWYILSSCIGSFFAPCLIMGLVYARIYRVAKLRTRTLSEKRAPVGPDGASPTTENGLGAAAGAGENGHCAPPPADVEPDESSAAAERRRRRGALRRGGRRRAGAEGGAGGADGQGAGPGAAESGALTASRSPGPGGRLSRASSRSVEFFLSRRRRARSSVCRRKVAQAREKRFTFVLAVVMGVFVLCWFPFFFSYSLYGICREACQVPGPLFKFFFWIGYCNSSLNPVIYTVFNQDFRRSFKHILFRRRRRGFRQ
# [13] = target: D(1A) dopamine receptor (Homo sapiens, UniProt P21728); assay type: functional, cell-based
# D(1A) dopamine receptor, sequence (P21728 whole entry): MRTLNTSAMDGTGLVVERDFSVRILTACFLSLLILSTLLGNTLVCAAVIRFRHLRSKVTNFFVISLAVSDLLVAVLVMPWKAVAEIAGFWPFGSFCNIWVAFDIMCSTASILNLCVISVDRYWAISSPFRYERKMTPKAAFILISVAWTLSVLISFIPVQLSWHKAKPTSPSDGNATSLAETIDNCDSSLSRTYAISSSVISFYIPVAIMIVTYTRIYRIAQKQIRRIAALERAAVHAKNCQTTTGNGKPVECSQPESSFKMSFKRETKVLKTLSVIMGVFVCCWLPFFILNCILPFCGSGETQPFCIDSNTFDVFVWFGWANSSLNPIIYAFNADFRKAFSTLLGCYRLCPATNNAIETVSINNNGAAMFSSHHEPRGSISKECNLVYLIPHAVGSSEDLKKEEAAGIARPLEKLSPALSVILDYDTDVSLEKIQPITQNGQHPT
# Further: assay procedure not described here.
structure (smiles),measurement,setting,value
CCn1cc(C(=O)O)c(=O)c2cc(F)c(N3CCNCC3)nc21 [ENOXACIN],AC50,[1],> 30 µM
same,AC50,[2],> 30 µM
same,AC50,[3],> 10 µM
same,AC50,[4],> 30 µM
same,AC50,[5],> 10 µM
same,AC50,[6],> 10 µM
same,AC50,[7],> 30 µM
same,AC50,[8],> 30 µM
same,AC50,[9],> 10 µM
same,AC50,[10],> 30 µM
same,AC50,[11],> 30 µM
same,AC50,[12],> 10 µM
same,AC50,[13],> 10 µM
O=[N+]([O-])O[C@H]1CO[C@H]2[C@@H]1OC[C@H]2O[N+](=O)[O-] [ISOSORBIDE DINITRATE],AC50,[4],> 30 µM
NC(=O)NCCC[C@H](N)C(=O)O [L-CITRULLINE],AC50,[4],> 30 µM
CC(=O)O[C@H]1C[C@H](O[C@H]2[C@@H](O)C[C@H](O[C@H]3[C@@H](O)C[C@H](O[C@H]4CC[C@@]5(C)[C@H](CC[C@@H]6[C@@H]5C[C@@H](O)[C@]5(C)[C@@H](C7=CC(=O)OC7)CC[C@]65O)C4)O[C@@H]3C)O[C@@H]2C)O[C@H](C)[C@H]1O[C@@H]1O[C@H](CO)[C@@H](O)[C@H](O)[C@H]1O [LANATOSIDE C],AC50,[4],> 30 µM
Cc1cc(CCN2CCN(c3cccc(Cl)c3)CC2)n[nH]1 [MEPIPRAZOLE],AC50,[4],> 30 µM
CC[N+](C)(CC)CCOC(=O)C1c2ccccc2Oc2ccccc21 [METHANTHELINE],AC50,[4],> 30 µM
CO[C@H]1[C@@H](O)C[C@H](O[C@H]2[C@@H](O)C[C@H](O[C@H]3[C@@H](O)C[C@H](O[C@H]4CC[C@@]5(C)[C@H](CC[C@@H]6[C@@H]5C[C@@H](O)[C@]5(C)[C@@H](C7=CC(=O)OC7)CC[C@]65O)C4)O[C@@H]3C)O[C@@H]2C)O[C@@H]1C [METILDIGOXIN],AC50,[4],> 30 µM
CCOC(=O)[C@H](CCc1ccccc1)N[C@@H](C)C(=O)N1Cc2cc(OC)c(OC)cc2C[C@H]1C(=O)O [MOEXIPRIL],AC50,[4],> 30 µM
CC(c1ccc(Cl)c(Cl)c1)N1N=C(N)CC1=O (configuration not stated) [MUZOLIMINE],AC50,[4],> 30 µM
CCN(CC)CCOC(=O)C(Cc1cccc2ccccc12)CC1CCCO1 (configuration not stated) [NAFRONYL],AC50,[4],> 30 µM
c1ccc2c(CC3=NCCN3)cccc2c1 [NAPHAZOLINE],AC50,[4],> 30 µM
same,AC50,[12],0.33 µM
N[C@@H](Cc1c[nH]c2ccc(O)cc12)C(=O)O [OXITRIPTAN],AC50,[4],> 30 µM
CNC(=O)Oc1ccc2c(c1)[C@]1(C)CCN(C)[C@@H]1N2C [PHYSOSTIGMINE],AC50,[1],> 30 µM
same,AC50,[2],> 30 µM
same,AC50,[3],> 30 µM
same,AC50,[4],> 30 µM
same,AC50,[5],> 30 µM
same,AC50,[6],> 30 µM
same,AC50,[7],> 30 µM
same,AC50,[8],> 30 µM
same,AC50,[9],> 30 µM
same,AC50,[10],> 30 µM
same,AC50,[11],> 30 µM
same,AC50,[12],> 30 µM
same,AC50,[13],> 30 µM
C1CNCCN1 [PIPERAZINE],AC50,[4],23.3 µM
c1cc(CN2CCCNCCNCCCNCC2)ccc1CN1CCCNCCNCCCNCC1 [PLERIXAFOR],AC50,[4],> 30 µM
CO[C@H]1/C=C/O[C@@]2(C)Oc3c(C)c(O)c4c(O)c(cc(O)c4c3C2=O)NC(=O)/C(C)=C\C=C\[C@H](C)[C@H](O)[C@@H](C)[C@@H](O)[C@@H](C)[C@H](OC(C)=O)[C@@H]1C [RIFAMYCIN],AC50,[4],> 30 µM
CCCC(=O)O[C@H]1[C@H](C)O[C@@H](O[C@H]2[C@H](N(C)C)[C@@H](O)[C@H](O[C@H]3[C@@H](CC=O)C[C@@H](C)[C@@H](O)/C=C/C=C/C[C@@H](C)OC(=O)C[C@@H](O)[C@@H]3OC)O[C@@H]2C)C[C@@]1(C)OC(=O)CC [ROKITAMYCIN],AC50,[4],> 30 µM
CCCCCCCCCCCCCCCCCC(=O)NCCCC[C@H](NC(=O)CC[C@@H](NC(=O)[C@H](C)NC(=O)[C@@H](C)O[C@H]1[C@H](O)[C@@H](CO)OC(O)[C@@H]1NC(C)=O)C(N)=O)C(=O)O (some centres not stated) [ROMURTIDE],AC50,[4],> 30 µM
O=C(Oc1ccccc1C(=O)O)c1ccccc1O [SALSALATE],AC50,[4],> 30 µM
COc1cc([C@@H]2c3cc4c(cc3[C@@H](O[C@@H]3O[C@@H]5CO[C@@H](c6cccs6)O[C@H]5[C@H](O)[C@H]3O)[C@H]3COC(=O)[C@H]23)OCO4)cc(OC)c1O [TENIPOSIDE],AC50,[4],> 30 µM
c1ccc2[nH]c(-c3cscn3)nc2c1 [THIABENDAZOLE],AC50,[4],> 30 µM
CCSc1ccc2c(c1)N(CCCN1CCN(C)CC1)c1ccccc1S2 [THIETHYLPERAZINE],AC50,[1],> 30 µM
same,AC50,[4],> 30 µM
same,AC50,[6],16 µM
same,AC50,[11],18 µM
same,AC50,[12],2.2 µM
C[C@@H]1C[C@H]2[C@@H]3CCC4=CC(=O)C=C[C@]4(C)C3=CC[C@]2(C)[C@H]1C(=O)CN1CCN(c2cc(N3CCCC3)nc(N3CCCC3)n2)CC1 [TIRILAZAD],AC50,[4],> 30 µM
